# Reference: patent US12329851B2 (MedinCell S.A., priority 2021, dated 2025)
# Assay: Population pharmacokinetics (PopPK) modeling
# Parameters: species or system human
# Conditions: after sc Risperidone formulation
# Text: The general procedures that were followed for PopPK model development are outlined below: • 1. Exploratory data analysis • 2. Base structural model development • 3. Evaluation of covariate effects • 4. Model refinement • 5. Model evaluation
# This was a one compartment model, with a first order and transit compartment absorption routes and a first-order elimination.
# Predicted risperidone concentration from the parent model was used as input into the metabolite central compartment.
# Finally, model estimated parent and metabolite levels were used to calculate TAM exposure, which was used for PK evaluation and simulations as well as for exposure-response evaluation of safety and efficacy.
compound,measurement,value
"Cc1nc2n(c(=O)c1CCN1CCC(c3noc4cc(F)ccc34)CC1)CCCC2O (stereo not shown) [9-OH-risperidone, 9-hydroxy-risperidone]",final PopPK model estimate for clearance (CL),5.78 L/h
